According to patent US10221139B2, “Inhibitors of histone demethylases” (Gilead Sciences, Inc., priority 2012, dated 2019):

Key:
GASC1 (KDM4C, JMJD2C) = target: T1, GASC1 (KDM4C, JMJD2C) (Homo sapiens, UniProt Q9H3R0); experiment: Histone lysine demethylase AlphaLISA assay, GASC1; assay type: biochemical; details: substrate BK9M3
T1 construct: 1-349; host or cells: E. coli
T1 sequence (Q9H3R0 1-349): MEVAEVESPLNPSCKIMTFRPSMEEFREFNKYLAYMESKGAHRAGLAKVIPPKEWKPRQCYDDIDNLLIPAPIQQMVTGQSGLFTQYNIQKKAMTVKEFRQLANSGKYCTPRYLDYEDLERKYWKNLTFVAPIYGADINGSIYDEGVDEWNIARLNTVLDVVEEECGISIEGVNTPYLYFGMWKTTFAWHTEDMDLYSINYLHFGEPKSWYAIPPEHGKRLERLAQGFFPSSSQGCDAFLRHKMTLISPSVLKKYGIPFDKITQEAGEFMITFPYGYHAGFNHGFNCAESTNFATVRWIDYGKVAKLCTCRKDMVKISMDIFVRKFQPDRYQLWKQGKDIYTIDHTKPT
Protocol: (§1) Example 2: Histone Lysine Demethylase AlphaLISA Assays for IC50 Value Determination
(§2) Assays are performed analogously to the protocol described by Perkin Elmer (Roy et al. Perkin Elmer Technical Note: AlphaLISA #12, April 2011).
(§3) Enzymes are dissolved in enzyme buffer and incubated for 10 min before 5 μL is added to 5 μL 3% DMSO solutions of compounds in enzyme buffer. Incubated for another 10 minutes, before 5 μL substrate solution is added and the reaction mixture is incubated at room temperature for the given period. 10 μL acceptor beads, suspended at given dilutions in Epigenetic Buffer (Perkin Elmer AL008) from stock, are added and the suspension is incubated 60 minutes in the dark at room temperature, before 10 μL suspension (at the given dilutions in Epigenetic Buffer) of streptavidin donor beads (Perkin Elmer 6760002) in Epigenetic Buffer is added. After incubation at room temperature in the dark the plates are read. Reaction conditions are seen in Table 2b.

PLU1 (KDM5B) = target: T2, PLU1 (KDM5B) (Homo sapiens, UniProt Q9UGL1); experiment: Histone lysine demethylase AlphaLISA assay, PLU1; assay type: biochemical; details: substrate H3K4M3B
T2 construct: 1-809; host or cells: E. coli
T2 sequence (Q9UGL1 1-809): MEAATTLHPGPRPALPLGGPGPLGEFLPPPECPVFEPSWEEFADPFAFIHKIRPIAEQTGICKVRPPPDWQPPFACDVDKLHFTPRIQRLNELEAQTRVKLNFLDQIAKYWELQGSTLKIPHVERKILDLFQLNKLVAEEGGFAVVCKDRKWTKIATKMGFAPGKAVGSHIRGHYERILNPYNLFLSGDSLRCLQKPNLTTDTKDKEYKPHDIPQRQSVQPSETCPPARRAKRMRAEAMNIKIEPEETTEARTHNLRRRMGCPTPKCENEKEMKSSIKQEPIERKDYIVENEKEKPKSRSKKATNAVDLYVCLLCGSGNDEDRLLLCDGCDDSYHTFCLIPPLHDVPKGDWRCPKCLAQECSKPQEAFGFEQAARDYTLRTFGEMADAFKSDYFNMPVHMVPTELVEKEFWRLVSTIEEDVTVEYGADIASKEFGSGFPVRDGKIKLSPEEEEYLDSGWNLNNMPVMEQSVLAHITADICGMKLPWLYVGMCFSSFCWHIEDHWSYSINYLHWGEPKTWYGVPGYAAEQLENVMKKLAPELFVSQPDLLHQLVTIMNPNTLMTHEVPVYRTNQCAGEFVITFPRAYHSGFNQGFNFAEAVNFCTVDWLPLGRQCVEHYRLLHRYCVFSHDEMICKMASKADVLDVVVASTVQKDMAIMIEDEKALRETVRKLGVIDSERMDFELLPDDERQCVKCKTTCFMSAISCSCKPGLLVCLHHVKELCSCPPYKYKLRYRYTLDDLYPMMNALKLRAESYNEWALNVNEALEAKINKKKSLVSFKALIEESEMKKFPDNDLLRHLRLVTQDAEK
Protocol: as §1, §2, §3

UTX (KDM6A) = target: T3, UTX (KDM6A) (Homo sapiens, UniProt O15550); experiment: Histone lysine demethylase AlphaLISA assay, UTX; assay type: biochemical; details: substrate BK27M3
T3 construct: 919-1401; host or cells: E. coli
T3 sequence (O15550 919-1401): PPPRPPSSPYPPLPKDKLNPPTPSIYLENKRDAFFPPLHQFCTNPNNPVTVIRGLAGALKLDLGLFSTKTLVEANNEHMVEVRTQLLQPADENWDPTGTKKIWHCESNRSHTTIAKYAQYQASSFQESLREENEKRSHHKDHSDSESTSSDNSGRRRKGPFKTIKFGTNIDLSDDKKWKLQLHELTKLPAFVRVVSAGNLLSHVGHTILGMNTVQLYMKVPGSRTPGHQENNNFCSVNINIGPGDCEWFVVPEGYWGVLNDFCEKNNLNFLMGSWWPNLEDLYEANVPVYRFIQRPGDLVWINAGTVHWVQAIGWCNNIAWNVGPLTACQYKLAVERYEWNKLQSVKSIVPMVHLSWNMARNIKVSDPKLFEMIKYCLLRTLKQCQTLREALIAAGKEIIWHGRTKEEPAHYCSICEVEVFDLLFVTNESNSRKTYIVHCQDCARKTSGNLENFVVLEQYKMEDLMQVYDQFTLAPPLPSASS
Protocol: as §1, §2, §3

MCF7 cells = experiment: MCF7 cell proliferation assay (ATPlite); assay type: cell-based; details: Homo sapiens, 120 hours
Protocol: MCF7 cells were seeded at 1250 cells/well in 50 μl medium/well in black 96 well plates. Cells were incubated for 24 hours before addition of compound. Compounds were diluted in complete medium (50 μl/well) and added to the plates in duplicates. The total volume of medium in the wells was 100 μl, and the final concentration of DMSO 0.5%. Complete medium used was DMEM with GlutaMAX containing 10% FBS and pen/strep.
120 hours after addition of compounds, the plates were harvested and analyzed by ATPlite 1 Step (Perkin Elmer, cat no 6016739) according to the manufactures recommendation. Briefly, 100 μl ATP lite solution was added to each well, plates were vortexed at 700 rpm 2 minutes, followed by 20 minutes incubation in the dark, and then analyzed for luminescence on EnSpire 2300 Mulitilabel reader (Perkin Elmer). EC50 values were calculated using GraphPad Prism 6.

Compound	IC50 (GASC1 (KDM4C, JMJD2C))	IC50 (PLU1 (KDM5B))	IC50 (UTX (KDM6A))	EC50 (MCF7 cells)
CCOC(=O)c1ccnc(CNCC(=O)N(CC)CCN(C)C)c1 [#65, ethyl 2-{[({[2-(dimethylamino)ethyl](ethyl)carbamoyl}methyl)amino]methyl}pyridine-4-carboxylate]	100 to 1000 nM	100 to 1000 nM	< 100 nM	
C=CC(CCNC(=O)C(F)(F)F)OC(=O)c1ccnc(CNCC(=O)N(CC)CCN(C)C)c1 (stereo not drawn) [#66, 5-(trifluoroacetamido)pent-1-en-3-yl 2-{[({[2-(dimethylamino)ethyl](ethyl)carbamoyl}methyl)amino]methyl}pyridine-4-carboxylate]	100 to 1000 nM	100 to 1000 nM	< 100 nM	
C=CC(CCN(C)C(=O)C(F)(F)F)OC(=O)c1ccnc(CNCC(=O)N(CC)CCN(C)C)c1 (stereo not drawn) [#67, 5-(2,2,2-trifluoro-N-methylacetamido)pent-1-en-3-yl 2-{[({[2-(dimethylamino)ethyl](ethyl)carbamoyl}methyl)amino]methyl}pyridine-4-carboxylate]	100 to 1000 nM	100 to 1000 nM	< 100 nM	
CCCCCCCCCCCCCCCC(=O)OCC(COC(=O)c1ccnc(CNCC(=O)N(CC)CCN(C)C)c1)OC(=O)CCCCCCCCCCCCCCC (stereo not drawn) [#69, 1-(2-{[({[2-(dimethylamino)ethyl](ethyl)carbamoyl}methyl)amino]methyl}pyridine-4-carbonyloxy)-3-(hexadecanoyloxy)propan-2-yl hexadecanoate]	100 to 1000 nM	100 to 1000 nM	< 100 nM	
CCN(CCN(C)C)C(=O)CNCc1cc(C(=O)Nc2nccn2C)ccn1 [#89, 2-{[({[2-(dimethylamino)ethyl](ethyl)carbamoyl}methyl)amino]methyl}-N-(1-methyl-1H-imidazol-2-yl)pyridine-4-carboxamide]	100 to 1000 nM	< 100 nM	< 100 nM	
O=C(O)c1ccnc(CNCC2CC2)c1 [drawing 257, 2-{[(cyclopropylmethyl)amino]methyl}pyridine-4-carboxylic acid]				1000 to 50000 nM
CSCCNCc1cc(C(=O)O)ccn1 [drawing 258, 2-({[2-(methylsulfanyl)ethyl]amino}methyl)pyridine-4-carboxylic acid]				1000 to 50000 nM
Cn1c(CNCc2cc(C(=O)O)ccn2)nc2ccccc21 [drawing 259]				1000 to 50000 nM
C=CCN(CC=C)C(=O)CNCc1cc(C(=O)O)ccn1 [drawing 260, 2-[({[bis(prop-2-en-1-yl)carbamoyl]methyl}amino)methyl]pyridine-4-carboxylic acid]				1000 to 50000 nM
CN(CCCc1nccn1C)C(=O)CNCc1cc(C(=O)O)ccn1 [drawing 261, 2-{[({methyl[3-(1-methyl-1H-imidazol-2-yl)propyl]carbamoyl}methyl)amino]methyl} pyridine-4-carboxylic acid]				1000 to 50000 nM
COc1ccccc1CN1CCC(NC(=O)CNCc2cc(C(=O)O)ccn2)CC1 [drawing 262]				1000 to 50000 nM
CCN(CCC#N)C(=O)CNCc1cc(C(=O)O)ccn1 [drawing 263, 2-[({[(2-cyanoethyl)(ethyl)carbamoyl]methyl}amino)methyl]pyridine-4-carboxylic acid]				1000 to 50000 nM
CN(CCCNCc1cc(C(=O)O)ccn1)Cc1ccccc1F [drawing 264, 2-{[(3-{[(2-fluorophenyl)methyl](methyl)amino}propyl)amino]methyl}pyridine-4-carboxylic acid]				1000 to 50000 nM
O=C(O)c1ccnc(CNCCCN2CCC(Cc3ccccc3)CC2)c1 [drawing 265, 2-({[3-(4-benzylpiperidin-1-yl)propyl]amino}methyl)pyridine-4-carboxylic acid]				1000 to 50000 nM
O=C(O)c1ccnc(CNCCCNCCOc2ccccc2)c1 [drawing 266, 2-[({3-[(2-phenoxyethyl)amino]propyl}amino)methyl] pyridine-4-carboxylic acid]				1000 to 50000 nM
CN(CCCCN(Cc1ccccc1)C1CC1)C(=O)CNCc1cc(C(=O)O)ccn1 [drawing 267, 2-({[({4-[benzyl(cyclopropyl)amino]butyl)(methyl)carbamoyl)methyl]amino}methyl)pyridine-4-carboxylic acid]				> 50000 nM
CCN(CCN(C)C)C(=O)CNCc1cc(C(=O)O)ccn1 [drawing 268, 2-{[({[2-(dimethylamino)ethyl](ethyl)carbamoyl}methyl)amino]methyl}pyridine-4-carboxylic acid]				1000 to 50000 nM
CCN(CC)CCCCNCc1cc(C(=O)Oc2ccc(OC)cc2)ccn1 [drawing 269, 4-methoxyphenyl 2-({[4-(diethylamino)butyl]amino}methyl)pyridine-4-carboxylate]				< 1000 nM
CCOC(=O)c1ccccc1OC(=O)c1ccnc(CNCCCCN(CC)CC)c1 [drawing 270, 2-(ethoxycarbonyl)phenyl 2-({[4-(diethylamino)butyl]amino}methyl)pyridine-4-carboxylate]				< 1000 nM
CCN(CC)CCCCNCc1cc(C(=O)OCCCN(C)C)ccn1 [drawing 271, 3-(dimethylamino)propyl 2-({[4-(diethylamino)butyl]amino}methyl)pyridine-4-carboxylate]				1000 to 50000 nM
CCOC(=O)Nc1ccc(COC(=O)c2ccnc(CNCCCCN(CC)CC)c2)cc1 [drawing 272, {4-[(ethoxycarbonyl)amino]phenyl}methyl 2-({[4-(diethylamino)butyl]amino}methyl)pyridine-4-carboxylate]				1000 to 50000 nM
CCN(CC)CCCCNCc1cc(C(=O)Oc2c(OC)cccc2OC)ccn1 [drawing 273, 2,6-dimethoxyphenyl 2-({[4-(diethylamino)butyl]amino}methyl)pyridine-4-carboxylate]				< 1000 nM
CCN(CC)CCCCNCc1cc(C(=O)Oc2c(C)cccc2C)ccn1 [drawing 274, 2,6-dimethylphenyl 2-({[4-(diethylamino)butyl]amino}methyl)pyridine-4-carboxylate]				< 1000 nM
CCN(CCN(C)C)C(=O)CNCc1cc(C(=O)Oc2ccc(OC)cc2)ccn1 [drawing 275, 4-methoxyphenyl 2-{[({[2-(dimethylamino)ethyl](ethyl)carbamoyl}methyl)amino]methyl}pyridine-4-carboxylate]				1000 to 50000 nM
CCOC(=O)c1ccccc1OC(=O)c1ccnc(CNCC(=O)N(CC)CCN(C)C)c1 [drawing 276, 2-(ethoxycarbonyl)phenyl 2-{[({[2-(dimethylamino)ethyl](ethyl)carbamoyl}methyl)amino]methyl}pyridine-4-carboxylate]				1000 to 50000 nM
CCOC(=O)N(C)c1ccc(COC(=O)c2ccnc(CNCCCCN(CC)CC)c2)cc1 [drawing 277, {4-[(ethoxycarbonyl)(methyl)amino]phenyl}methyl 2-({[4-(diethylamino)butyl]amino}methyl)pyridine-4-carboxylate]				< 1000 nM
{4-[(ethoxycarbonyl)amino]phenyl}methyl 2-({[4-(diethylamino)butyl]amino}methyl)pyridine-4-carboxylate [#55]	100 to 1000 nM	< 100 nM	≥ 1000 nM	
